The results in this text go back to US10039795B2, “Codon optimized recombinant phage and methods of using same” (priority 2014, dated 2018).

Read-outs that look alike come from different tables or passages of the source.

Format in all cases: cell-based
The subject of assay [1] is Listeria.
Assay [2] has as its system 1893 cell-type. Put plainly: Sanitizer neutralization assay, phage infection step. Particulars: added to NIB-14; 2 mM sodium metabisulfite or 0.05% sodium thiosulfate. On the procedure:
Following the 30 minute incubation period, the luciferase marker containing phage was added in BHI medium, and the samples were further allowed to incubate for an additional 3 hours at 30° C. The enzyme was then detected by the addition of the NanoGlo luciferin substrate and luminescence measurement. […] Another variant of this assay involved the direct incubation of the sterilization chemical with the NanoGlo luciferin substrate in the absence of either cells, phage or enzyme.

Assay [3] deals with stressed bacterial cells (Listeria). Particulars: for effect on infection rate or enzymatic activity: antifungal agent added to base medium. On the procedure:
Media were screened for the ability to support high infection rate and high signal intensity following infection with phage encoding a luciferase marker. Bacterial cells were purposefully stressed by way of drying for 18 hours on a stainless steel table, followed by re-suspension in brain-heart infusion medium (BHI) for 30 minutes. The recovered cells were then infected with phage containing a luciferase marker for 6 hours followed by testing of the enzymatic activity using unpurified phage lysate and NanoLuc reagent.
BHI and TSB media were further titrated to assess whether there was an increase in RLU at different concentrations of base media.
Select components were added to the media in order to remedy known stressors to cells, and to reduce the possibility for other chemicals interfering with the test results. To this end, lithium chloride was added at defined concentrations to the selected 1×TSB base medium, followed by infecting the cells with a luciferase containing phage, and lastly by assaying the RLU detectable as a function of the percentage of lithium chloride added to the media. Lithium chloride was selected as an additive in order to overcome, prevent or limit growth of competing biologicals. […] (See FIG. 11).
Components selected to overcome cell starvation and oxidative stress, glucose and yeast extract, respectively, were titrated in 1×TSB, followed by infection of the bacteria with luciferase containing phage, and lastly by assaying the RLU detectable as a function of the percentage of either glucose or yeast extract.
Antifungal agents were also added to the base medium and tested in order to determine whether there is a decrease in RLU activity, either as a result of loss of enzyme activity or because of reduced infection ability. The anti-fungal agents tested included cycloheximide solution in DMSO.
The effect of divalent cations added to Formulation-1 was assessed. MgSO4 or CaCl2 was added to Formulation-1, followed by infection of bacteria with luciferase encoding phage, and assessment of resultant RLU.
The resultant formulation that incorporates all of the components of Formulation-1A, with the addition of HEPES, is herein referred to as Formulation-2 or as NIB-12.

For assay [4], the system named is bacteria exposed to luciferase encoding phage. Put plainly: Phage infection and enzyme activity across media formulations (RLU). Particulars: comparison across media formulations and additives. The protocol: A systematic comparison of RLU values as a function of additive component was performed on various media formulations. (See FIG. 15). The effects of different additives on both enzymatic activity, as well as infection ability, was measured and compared by way of assessing RLU across the different conditions.

Assay [5] has as its system bacterial cells (Listeria). Put plainly: RLU after phage infection in the presence of increasing quaternary ammonium salts. Particulars: additive in Listeria Growth Broth. The source says:
Bacterial cells were exposed to luciferase encoding phage in the following buffers, Listeria growth broth, Listeria growth broth with TWEEN®-80, or to Listeria growth broth with the addition of both TWEEN®-80 and lecithin. The RLU values are shown on the y-axis.
The addition of TWEEN®-80, either alone or in combination with lecithin, to the Formulation-2 (NIB-12) medium allowed for protection of the samples from interference by quaternary ammonium salts. (See FIG. 14). […] In this case, there was a sustained, detectable RLU in the presence of up to 62.5 ppm quaternary ammonium salts. The amount of resistance to quaternary ammonium salts was further increased through the addition of both lecithin and TWEEN®-80. With the addition of both reagents to Listeria Growth Broth, there was detectable RLU up to 125 ppm quaternary ammonium salts. Another preferred embodiment of the media contains 1.5% of TWEEN®-80 and 0.22% of lecithin.

Where [6] appears, read: component of aqueous solution (infection buffer).

On to `O=S([O-])S(=O)(=O)[O-].[Na+].[Na+]` [Sodium metabisulfite], for which the “Effect on Listeria Detection” value in assay [1] (setting [6]) is listed as “positive”. For the same molecule, in assay [2], the “effect of oxygen scavenger on oxidizing effect of peroxide” value is listed as “reduced the oxidizing effect of peroxide”. `O=S(=O)([O-])[O-].[Mg+2]` [Magnesium sulphate]: the “RLU activity on addition of divalent cation” value in assay [3] (added to Formulation-1, in comparison to CaCl2) is recorded as “marked increase”. The “Effect on Listeria Detection” value in assay [1] (setting [6]) is given as “positive”. Also, the “infection ability (RLU)” value in assay [4] is recorded as “large impact in increasing infection ability”. Regarding `CCn1cc(C(=O)O)c(=O)c2ccc(C)nc21` [Nalidixic acid, reference compound], the “Effect on Listeria Detection” value in assay [1] (setting [6]) is given as “positive”.

As for `O=S(=O)(O)CCCN1CCOCC1` [MOPS, pH 7.2, MOPS], in assay [1] (setting [6]), the “Effect on Listeria Detection” value is reported as “positive”. As to `OCC(O)CO` [Glycerol], the “Effect on Listeria Detection” value in assay [1] (setting [6]) is listed as “neutral”. `O=S(=O)(O)CCN1CCN(CCO)CC1` [HEPES, pH 7.4, HEPES]: the “ideal HEPES concentration for high RLU activity” value in assay [3] (titrated into Formulation-1A, 3 hour and 6 hour time points) was 20 mM. In assay [1] (setting [6]), the “Effect on Listeria Detection” value is listed as “positive”. With `[Cl-].[Li+]` [Lithium chloride], the “additive concentration giving highest RLU / selected on RLU levels” value in assay [3] (titrated in 1×TSB, 3 hour and 6 hour assay points) was 0.25%. Besides, the “Effect on Listeria Detection” value in assay [1] (setting [6]) is on record as “optimized”. As to `[Ca+2].[Cl-].[Cl-]` [Calcium chloride], in assay [1], the “Effect on Listeria Detection” value is on record as “neutral”. Turning to `C[N+](C)(C)CCOP(=O)(O)O.[Cl-]` [Phosphocholine chloride], the “Effect on Listeria Detection” value in assay [1] (setting [6]) is recorded as “negative”.

As to `Cc1ncc(C[n+]2csc(CCO)c2C)c(N)n1` [Thiamine], in assay [1] (setting [6]), the “Effect on Listeria Detection” value is reported as “neutral”.

For Ferric sulfate, the “Effect on Listeria Detection” value in assay [1] (setting [6]) is reported as “neutral”.

Regarding `CC(C)(O/N=C(\C(=O)N[C@@H]1C(=O)N2C(C(=O)[O-])=C(C[n+]3ccccc3)CS[C@H]12)c1csc(N)n1)C(=O)O` [Ceftazidime, reference compound], the “Effect on Listeria Detection” value in assay [1] (setting [6]) was “positive”. The same measure, in the same setting: with Ferric ammonium citrate the entry was “neutral”; with `N[C@@H](CCC(=O)[O-])C(=O)[O-].[Na+].[Na+]` [Sodium glutamate], “neutral”; with Polysorbate 20, “negative”. On the same count and under the same terms, then Acriflavin, with “negative”; and `O=S(=O)([O-])[O-].[Fe+2]` [Ferrous sulphate], with “negative”. Regarding `CO[C@@]1(NC(=O)C(C(=O)O)c2ccc(O)cc2)C(=O)N2C(C(=O)O)=C(CSc3nnnn3C)CO[C@@H]21` (stereo partly drawn) [Moxalactam, reference compound], in assay [1] (setting [6]), the “Effect on Listeria Detection” value is “neutral”. Same read-out and setting: then `O=C([O-])CS.[Na+]` [Sodium thioglycollate], with “negative”.

Consider Polysorbate 80, for which the “Effect on Listeria Detection” value in assay [1] (setting [6]) is on record as “positive”. Further, the “quaternary ammonium salts concentration up to which RLU is detectable” value in assay [5] was “up to 62.5 ppm”. For the same molecule, in assay [4], the “infection ability (RLU)” value is recorded as “large impact in increasing infection ability”. As for `OC[C@H]1O[C@@](CO)(O[C@H]2O[C@H](CO)[C@@H](O)[C@H](O)[C@H]2O)[C@@H](O)[C@@H]1O` [Sucrose], the “Effect on Listeria Detection” value in assay [1] (setting [6]) is given as “neutral”. Turning to `CC(=O)C(=O)[O-].[Na+]` [Sodium pyruvate], in assay [3] (HEPES titration experiment), the “RLU activity on addition of pyruvate” value is listed as “further increased RLU activity”. In addition, the “Effect on Listeria Detection” value in assay [1] (setting [6]) is recorded as “positive”. Besides, the “infection ability (RLU)” value in assay [4] is “large impact in increasing infection ability”. As to `O=S([O-])([O-])=S.[Na+].[Na+]` [Sodium thiosulfate], in assay [1], the “Effect on Listeria Detection” value is recorded as “negative”. Also, the “effect of oxygen scavenger on oxidizing effect of peroxide” value in assay [2] is “reduced the oxidizing effect of peroxide”. In the case of `C[S+](C)[O-]` [DMSO], the “effect on infection rate or enzymatic activity” value in assay [3] is given as “Neither cycloheximide nor DMSO resulted in a decrease”. As for `O=C(O)CCC(=O)C(=O)O` [Alpha-ketoglutarate], the “Effect on Listeria Detection” value in assay [1] (setting [6]) was “negative”.

On to Ferric citrate, for which the “Effect on Listeria Detection” value in assay [1] (setting [6]) is listed as “neutral”.

As to `C[C@@H]1C[C@@H]([C@H](O)CC2CC(=O)NC(=O)C2)C(=O)[C@@H](C)C1` [Cycloheximide], the “effect on infection rate or enzymatic activity” value in assay [3] is “Neither cycloheximide nor DMSO resulted in a decrease”. For the same molecule, the “Effect on Listeria Detection” value in assay [1] (setting [6]) is reported as “neutral”. Triton X-100: the “Effect on Listeria Detection” value in assay [1] (setting [6]) is on record as “negative”. On to O-octophosphorylcholine, for which, in assay [1] (setting [6]), the “Effect on Listeria Detection” value is recorded as “negative”. As to `O=C([O-])CC(O)(CC(=O)[O-])C(=O)[O-].[Na+].[Na+].[Na+]` [Sodium citrate], in assay [1] (setting [6]), the “Effect on Listeria Detection” value is listed as “negative”. For `O=C([O-])CC(=O)[O-].[Na+].[Na+]` [Sodium malonate], the “Effect on Listeria Detection” value in assay [1] (setting [6]) is “negative”.
